Measurements: patent publication EP4778920A1, “INDAZOLONE COMPOUND, PREPARATION METHOD THEREFOR, PHARMACEUTICAL COMPOSITION, AND USE” (Shanghai Institute of Materia Medica, Chinese Academy of …, priority 2023, dated 2025)

Columns and labels:
MV-4-11 cells = assay: MV-4-11 cell proliferation inhibition (MTS assay); type: cell-based; conditions: Homo sapiens, MV4-11, 168 h, 7 days incubation, MTS, read-out: MV-411 (IC50, Inhibitory Activity of Compounds on MV-4-11 Cell Proliferation)
Procedure: MV-4-11 cells were cultured in IMDM medium supplemented with 10% fetal bovine serum and collected. The cell concentration was diluted according to a 7-day incubation period, and 180 µL of cell suspension was added to each well of a 96-well plate, resulting in 2,000 cells per well. […] The test compounds were prepared from a 10 mM stock solution and serially diluted in a five-fold gradient, and 20 µL of the diluted compound solution was added to each compound-treated well (final DMSO concentration 0.2%). The cells were incubated in a 37 °C, 5% CO2 incubator for 7 days. After incubation, the reaction solution was prepared according to the MTS assay kit instructions (Promega, G5430), and 20 µL was added to each well. The plate was further incubated at 37 °C with 5% CO2 for 3-4 hours. The absorbance at 490 nm was measured using a microplate reader, and the absorbance at 690 nm was used as the background value. The final raw data were calculated as OD490 - OD690. […] The IC50 values for cell proliferation inhibition were determined using GraphPad Prism 5.0. Each experiment was repeated three times, and three parallel replicates were performed in each experiment to calculate the mean value and standard deviation.
Table 3. Inhibitory Activity of Compounds on MV-4-11 Cell Proliferation

MM.1S cells = assay: MM.1S cell proliferation inhibition (MTS assay); type: cell-based; conditions: Homo sapiens, MM1.S, 168 h, 7 days incubation, read-out: MM1.S (IC50, Inhibitory Activity of Compounds on MM.1S Cell Proliferation)
Procedure: The cell concentration was diluted according to a 7-day incubation period, and 180 µL of cell suspension was added to each well of a 96-well plate, with 20,000 cells per well. […] The test compounds were prepared from a 10 mM stock solution and serially diluted in a 5-fold gradient, and 20 µL of the diluted solution was added to each compound-treated well (final DMSO concentration also 0.2%). The cells were incubated in a 37 °C, 5% CO2 incubator for 7 days. After incubation, the reaction solution was prepared according to the MTS assay kit instructions (Promega, G5430), and 20 µL was added to each well. The plate was incubated at 37 °C with 5% CO2 for 3-4 hours. The absorbance at 490 nm was measured using a microplate reader, and the absorbance at 690 nm was used as the background value. […] The IC50 values for cell proliferation inhibition were determined using GraphPad Prism 5.0. Each experiment was repeated three times, and three parallel replicates were performed in each experiment to calculate the mean value and standard deviation.
Inhibitory Activity of Compounds on MM.1S Cell Proliferation

Mino cells = assay: Mino cell proliferation inhibition (MTS assay); type: cell-based; conditions: Homo sapiens, 72 h, 3 days incubation, read-out: Mino (IC50, Inhibitory Activity of Compounds on Mino Cell Proliferation)
Procedure: The cell concentration was diluted according to a 3-day incubation period, and 90 µL of cell suspension was added to each well of a 96-well plate, resulting in 8,000 cells per well. […] The test compounds were prepared from a 10 mM stock solution and serially diluted in a five-fold gradient. Similarly, 10 µL of the diluted compound solution was added to each compound-treated well (final DMSO concentration 0.2%).
The cells were incubated in a 37 °C, 5% CO2 incubator for 3 days. After incubation, the reaction solution was prepared according to the MTS assay kit instructions (Promega, G5430), and 20 µL was added to each well. The plate was further incubated at 37 °C with 5% CO2 for 3-4 hours. The absorbance at 490 nm was measured using a microplate reader, and the absorbance at 690 nm was used as the background value. The final raw data were calculated as OD490 - OD690. […] The IC50 values for cell proliferation inhibition were determined using GraphPad Prism 5.0. Each experiment was repeated three times, and three parallel replicates were performed in each experiment to calculate the mean value and standard deviation.
Table 2. Inhibitory Activity of Compounds on Mino Cell Proliferation

CRBN/DDB1 = CRBN/DDB1 (Homo sapiens, UniProt Q96SW2); assay: CRBN/DDB1 binding TR-FRET assay; conditions: read-out: AVE_Inhibition% (1 µM)
CRBN/DDB1, sequence (Q96SW2 whole entry, species assumed): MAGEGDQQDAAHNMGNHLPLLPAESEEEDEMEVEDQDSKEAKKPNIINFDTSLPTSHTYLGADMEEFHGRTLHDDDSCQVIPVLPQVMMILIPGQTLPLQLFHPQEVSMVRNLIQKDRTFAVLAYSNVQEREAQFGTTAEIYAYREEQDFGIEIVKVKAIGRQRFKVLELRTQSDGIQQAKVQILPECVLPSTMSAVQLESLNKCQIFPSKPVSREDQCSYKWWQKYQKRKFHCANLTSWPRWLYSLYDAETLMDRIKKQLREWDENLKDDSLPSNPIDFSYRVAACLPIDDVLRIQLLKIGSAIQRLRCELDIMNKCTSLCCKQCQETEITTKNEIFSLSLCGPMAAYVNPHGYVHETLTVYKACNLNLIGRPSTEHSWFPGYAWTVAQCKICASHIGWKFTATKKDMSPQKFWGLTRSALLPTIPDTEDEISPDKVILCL
CRBN/DDB1, sequence (Q16531 whole entry partner, species assumed): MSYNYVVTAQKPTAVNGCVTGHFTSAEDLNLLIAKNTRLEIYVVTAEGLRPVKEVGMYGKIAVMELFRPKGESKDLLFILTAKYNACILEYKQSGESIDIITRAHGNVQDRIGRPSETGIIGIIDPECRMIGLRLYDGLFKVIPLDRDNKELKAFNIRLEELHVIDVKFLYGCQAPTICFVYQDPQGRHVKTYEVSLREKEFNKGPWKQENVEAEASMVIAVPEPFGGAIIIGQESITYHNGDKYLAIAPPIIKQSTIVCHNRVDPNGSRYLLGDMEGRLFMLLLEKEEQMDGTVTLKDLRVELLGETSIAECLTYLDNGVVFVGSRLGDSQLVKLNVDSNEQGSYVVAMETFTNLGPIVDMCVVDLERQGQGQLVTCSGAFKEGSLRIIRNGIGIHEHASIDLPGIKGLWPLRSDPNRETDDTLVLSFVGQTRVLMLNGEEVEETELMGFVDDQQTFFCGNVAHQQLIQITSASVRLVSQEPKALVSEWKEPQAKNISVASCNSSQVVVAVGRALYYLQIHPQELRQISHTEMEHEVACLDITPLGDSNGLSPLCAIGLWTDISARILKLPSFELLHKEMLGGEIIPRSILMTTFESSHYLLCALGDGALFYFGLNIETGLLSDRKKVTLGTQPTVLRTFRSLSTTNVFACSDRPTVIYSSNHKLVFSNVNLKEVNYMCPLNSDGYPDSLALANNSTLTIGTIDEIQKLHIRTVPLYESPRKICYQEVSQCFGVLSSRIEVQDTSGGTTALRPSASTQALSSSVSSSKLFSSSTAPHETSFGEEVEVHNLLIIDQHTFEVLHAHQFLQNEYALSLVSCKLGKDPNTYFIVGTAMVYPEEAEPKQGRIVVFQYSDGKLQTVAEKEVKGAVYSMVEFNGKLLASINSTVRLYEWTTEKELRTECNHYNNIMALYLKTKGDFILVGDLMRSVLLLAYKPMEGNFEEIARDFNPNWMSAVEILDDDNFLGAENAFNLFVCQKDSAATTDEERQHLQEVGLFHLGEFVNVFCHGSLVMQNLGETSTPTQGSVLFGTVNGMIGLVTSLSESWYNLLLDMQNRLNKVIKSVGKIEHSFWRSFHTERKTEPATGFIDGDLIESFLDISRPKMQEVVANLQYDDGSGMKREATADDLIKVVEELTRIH
Procedure: • 1. 0.1 µL of the reference solution was added to a 384-well assay plate. The final detection concentration was 100 µM, followed by 3-fold serial dilution for 10 points. • 2. 2.5 µL of CRBN/DDB1 was added to the 384-well plate and centrifuged at 1000 rpm for 1 minute. • 3. 2.5 µL of Thalidomide-BODIPY was added to the plate, centrifuged at 1000 rpm for 1 minute, and incubated at 25 °C for 15 minutes. • 4. 5 µL of His-Tb was added to the plate, centrifuged at 1000 rpm for 1 minute, and incubated at 25 °C for 60 minutes. • 5. The TR-FRET signal was measured using a BMG plate reader with a fluorescence ratio of 520/490 nm.
Table 4. Inhibition Rate of Compounds on CRBN/DDB1 Binding

Row | Structure (SMILES) | IC50 (MV-4-11 cells) | IC50 (MM.1S cells) | IC50 (Mino cells) | inhibition at 1 µM (CRBN/DDB1)
1 | O=C1CC[C@H](n2[nH]c3c(OCc4ccc(CN5CCOCC5)cc4)cccc3c2=O)C(=O)N1 [Compound D1, (S)-3-(7-((4-(Morpholinomethyl)benzyl)oxy)-3-oxo-1,3-dihydro-2H-indazol-2-yl)piperidine-2,6-dione] | > 20000 nM | < 200 nM | 1000 to 10000 nM | 50 to 90%
2 | N#Cc1ccc(N2CCN(Cc3ccc(COc4cccc5c(=O)n([C@H]6CCC(=O)NC6=O)[nH]c45)cc3)CC2)c(F)c1 [Compound D2, (S)-4-(4-(4-(((2-(2,6-dioxopiperidin-3-yl)-3-oxo-2,3-dihydro-1H-indazol-7-yl)oxy)methyl)benzyl)piperazin-1-yl)-3-fluorobenzonitrile] | < 200 nM | < 200 nM | < 200 nM | > 90%
3 | N#Cc1ccc(N2CCN(C(=O)c3ccc(COc4cccc5c(=O)n(C6CCC(=O)NC6=O)[nH]c45)cc3)CC2)c(F)c1 (stereo not drawn) [Compound D4] | 1000 to 20000 nM | < 200 nM | < 200 nM | > 90%
4 | Cc1ccc(N2CCN(C(=O)c3ccc(COc4cccc5c(=O)n(C6CCC(=O)NC6=O)[nH]c45)cc3)CC2)c(F)c1 (stereo not drawn) [Compound D5, 3-(7-((4-(4-(2-Fluoro-4-methylphenyl)piperazine-1-carbonyl)benzyl)oxy)-3-oxo-1,3-dihydro-2H-indazol-2-yl)piperidine-2,6-dione] | 1000 to 20000 nM | < 200 nM | < 200 nM | 50 to 90%
5 | O=C1CCC(n2[nH]c3c(OCc4ccc(CN5CCN(c6ccc(F)cc6F)CC5)cc4)cccc3c2=O)C(=O)N1 (stereo not drawn) [Compound D7, 3-(7-((4-((4-(2,4-difluorophenyl)piperazin-1-yl)methyl)benzyl)oxy)-3-oxo-1,3-dihydro-2H-indazol-2-yl)piperidine-2,6-dione] | < 200 nM | < 200 nM | < 200 nM | > 90%
6 | O=C1CCC(n2[nH]c3c(OCc4ccc(CN5CCN(c6cccc(Cl)c6)CC5)cc4)cccc3c2=O)C(=O)N1 (stereo not drawn) [Compound D8, 3-(7-((4-((4-(3-chlorophenyl)piperazin-1-yl)methyl)benzyl)oxy)-3-oxo-1,3-dihydro-2H-indazol-2-yl)piperidine-2,6-dione] | < 200 nM | < 200 nM | < 200 nM | > 90%
7 | O=C1CCC(n2[nH]c3c(OCc4ccc(CN5CCN(c6ccc(Cl)cc6)CC5)cc4)cccc3c2=O)C(=O)N1 (stereo not drawn) [Compound D9, 3-(7-((4-((4-(4-chlorophenyl)piperazin-1-yl)methyl)benzyl)oxy)-3-oxo-1,3-dihydro-2H-indazol-2-yl)piperidine-2,6-dione] | < 200 nM | < 200 nM | < 200 nM | > 90%
8 | O=C1CCC(n2[nH]c3c(OCc4ccc(CN5CCN(c6ccc(F)cc6)CC5)cc4)cccc3c2=O)C(=O)N1 (stereo not drawn) [Compound D10, 3-(7-((4-((4-(4-fluorophenyl)piperazin-1-yl)methyl)benzyl)oxy)-3-oxo-1,3-dihydro-2H-indazol-2-yl)piperidine-2,6-dione] | < 200 nM | < 200 nM | < 200 nM | > 90%
9 | N#Cc1ccc(N2CCN(Cc3ccc(COc4cc(F)cc5c(=O)n(C6CCC(=O)NC6=O)[nH]c45)cc3)CC2)c(F)c1 (stereo not drawn) [Compound D14, 4-(4-(4-(((2-(2,6-dioxopiperidin-3-yl)-5-fluoro-3-oxo-2,3-dihydro-1H-indazol-7-yl)oxy)methyl)benzyl)piperazin-1-yl)-3-fluorobenzonitrile] | < 200 nM | < 200 nM | < 200 nM | > 90%
10 | O=C1CCC(n2[nH]c3c(OCc4ccc(CN5CCN(c6ccc(F)cc6F)CC5)cc4)cc(F)cc3c2=O)C(=O)N1 (stereo not drawn) [Compound D15, 3-(7-((4-((4-(2,4-difluorophenyl)piperazin-1-yl)methyl)benzyl)oxy)-5-fluoro-3-oxo-1,3-dihydro-2H-indazol-2-yl)piperidine-2,6-dione] | < 200 nM | < 200 nM | < 200 nM | 50 to 90%
11 | O=C1CCC(n2[nH]c3c(OCc4ccc(CN5CCN(c6ccc(Cl)cc6)CC5)cc4)cc(F)cc3c2=O)C(=O)N1 (stereo not drawn) [Compound D18, 3-(7-((4-((4-(4-chlorophenyl)piperazin-1-yl)methyl)benzyl)oxy)-5-fluoro-3-oxo-1,3-dihydro-2H-indazol-2-yl)piperidine-2,6-dione] | < 200 nM | < 200 nM | < 200 nM | > 90%
12 | O=C1CCC(n2[nH]c3c(OCc4ccc(CN5CCN(c6ccc(F)cc6)CC5)cc4)cc(F)cc3c2=O)C(=O)N1 (stereo not drawn) [Compound D19, 3-(5-Fluoro-7-((4-((4-(4-fluorophenyl)piperazin-1-yl)methyl)benzyl)oxy)-3-oxo-1,3-dihydro-2H-indazol-2-yl)piperidine-2,6-dione] | < 200 nM | < 200 nM | < 200 nM | > 90%
13 | Cc1ccc(CNC(=O)c2ccc3c(=O)n(C4CCC(=O)NC4=O)[nH]c3c2)cc1 (stereo not drawn) [Compound D36, 2-(2,6-dioxopiperidin-3-yl)-N-(4-methylbenzyl)-3-oxo-2,3-dihydro-1H-indazole-6-carboxamide] | > 20000 nM | > 10000 nM | > 10000 nM | –
14 | O=C1CCC(n2[nH]c3cc(C(=O)N[C@H](c4ccccc4)C(F)(F)F)ccc3c2=O)C(=O)N1 (stereo partly drawn) [Compound D37, 2-(2,6-dioxopiperidin-3-yl)-3-oxo-N-((R)-2,2,2-trifluoro-1-phenylethyl)-2,3-dihydro-1H-indazole-6-carboxamide] | > 20000 nM | > 10000 nM | > 10000 nM | –
15 | C[C@H](NC(=O)c1ccc2c(=O)n(C3CCC(=O)NC3=O)[nH]c2c1)c1ccc(F)cc1F (stereo partly drawn) [Compound D38, N-((S)-1-(2,4-difluorophenyl)ethyl)-2-(2,6-dioxopiperidin-3-yl)-3-oxo-2,3-dihydro-1H-indazole-6-carboxamide] | > 20000 nM | > 10000 nM | > 10000 nM | –
16 | C[C@H](NC(=O)c1ccc2c(=O)n(C3CCC(=O)NC3=O)[nH]c2c1)c1cccc(Cl)c1 (stereo partly drawn) [Compound D39, N-((S)-1-(3-chlorophenyl)ethyl)-2-(2,6-dioxopiperidin-3-yl)-3-oxo-2,3-dihydro-1H-indazole-6-carboxamide] | > 20000 nM | > 10000 nM | > 10000 nM | –
17 | O=C1CCC(n2[nH]c3cc(C(=O)N[C@@H]4CCOc5ccc(Cl)cc54)ccc3c2=O)C(=O)N1 (stereo partly drawn) [Compound D41, N-((R)-6-chlorochroman-4-yl)-2-(2,6-dioxopiperidin-3-yl)-3-oxo-2,3-dihydro-1H-indazole-6-carboxamide] | > 20000 nM | > 10000 nM | > 10000 nM | –
18 | Cc1cccc2c1OCC[C@H]2NC(=O)c1ccc2c(=O)n(C3CCC(=O)NC3=O)[nH]c2c1 (stereo partly drawn) [Compound D42, 2-(2,6-dioxopiperidin-3-yl)-N-((R)-8-methylchroman-4-yl)-3-oxo-2,3-dihydro-1H-indazole-6-carboxamide] | > 20000 nM | > 10000 nM | > 10000 nM | –
